Data published in patent US10640545B2 (THE GOVERNORS OF THE UNIVERSITY OF ALBERTA, priority 2017, dated 2020).
*1 amine or outer side, *2 acyl side, *3 side chain or, on linkers, in order; H or OH if unused. Where a SMILES comes first, the peptide text is derived from it. [ ]: non-standard residue; d: D form. Phe(4-Br) = N[C@@H](Cc1ccc(Br)cc1)C(=O)O; X1 = N=C(N)NCCCN(N[*:1])C(=O)[*:2]; azaLeu = CC(C)CN(N[*:1])C(=O)[*:2]; Nle = CCCC[C@H](N)C(=O)O; Aib = CC(C)(N)C(=O)O

Tests used:
[1] = biological target: T1, wild-type rat apelin receptor (Rattus norvegicus, UniProt Q9JHG3); assay: Radioligand binding, displacement of [125I]-pyr-1-apelin-13 on CHO cell membranes; conditions: for receptor binding affinity (in words): rat apelin receptor
T1 construct: expressed in transfected cells
T1 sequence (Q9JHG3 1-377): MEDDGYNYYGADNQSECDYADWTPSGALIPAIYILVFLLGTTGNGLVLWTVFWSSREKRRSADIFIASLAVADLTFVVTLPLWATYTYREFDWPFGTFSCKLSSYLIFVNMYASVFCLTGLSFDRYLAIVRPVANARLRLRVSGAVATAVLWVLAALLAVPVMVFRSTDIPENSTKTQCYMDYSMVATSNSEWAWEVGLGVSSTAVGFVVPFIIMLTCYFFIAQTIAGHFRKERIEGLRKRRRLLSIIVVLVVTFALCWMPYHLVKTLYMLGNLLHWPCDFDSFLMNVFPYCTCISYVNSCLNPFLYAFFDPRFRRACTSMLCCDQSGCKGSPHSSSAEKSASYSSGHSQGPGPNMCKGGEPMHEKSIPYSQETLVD
Protocol: This experiment evaluated the ability of peptides of the present embodiments to bind to the wild-type rat apelin receptor, in order to examine the impact of synthetic modification within the critical RPRL motif of the apelin peptides.
Membrane preparations from CHO cells stably expressing the wild-type rat apelin receptor-EGFP were prepared as previously described (Gerbier et al., New Structural Insights Into The Apelin Receptor: Identification Of Key Residues For Apelin binding; FASEB J. 2015, 29, 314-322; Iturrioz et. al., Development Of Original Metabolically-Stable Apelin-17 Peptides With Diuretic And Cardiovascular Effects; FASEB J. 2017, 31, 687-700.) Crude membrane preparations (1 μg total mass of membranes/assay) were incubated for 3 h at 20° C. with 0.2 nM [^125I]-pyr-1-apelin-13 (monoiodinated on Lys^8 with Bolton-Hunter reagent, Perkin Elmer, Wellesley, Mass., USA) in binding buffer (50 mM HEPES, 5 mM MgCl2 1149 pH 7.5, BSA 1%) alone or in presence of the different compounds at various concentrations. The reaction was stopped by adding 4 mL of cold binding buffer, filtered on Whatman GF/C filters and washed with 5 mL of cold binding buffer. Radioactivity was then counted using a Wizard 1470 Wallac gamma counter (Perkin Elmer, Turku, Finland). Binding experiment data were analyzed with Graph Pad Prism.

anesthetized mice = assay: Blood pressure assay in anesthetized mice; assay type: in vivo; conditions: 1.4 μM/kg body weight injected, SBP, DBP, MABP
Protocol: Synthetic peptides 8-19 were tested for blood pressure lowering abilities in anesthetized mice. Apelin peptides were injected through […], monitoring blood pressure (BP) and heart rate (HR) over 60 minutes.
Mice were anaesthetized with 1.5% isoflurane/oxygen, and body temperature was monitored and maintained at 36° C. by a heating pad. The aorta was cannulated via the right carotid artery using a PV loop catheter (Model 1.2F from Scisense, Transonic) in order to continuously record arterial blood pressure and heart rate (LabScribe 2.0, Scisense). […] Results are reported as systolic blood pressure (SBP), diastolic blood pressure (DBP), mean arterial blood pressure (MABP) and heart rate (HR).
Apelin peptides 11, 56-59 as well as the KLKB1-cleavage fragments 54 and 55 were tested for blood pressure lowering abilities in anesthetized mice.
Mice were anesthetized with 1.5% isoflurane/oxygen, and body temperature was monitored and maintained at 36° C. by a heating pad. The aorta was cannulated via the right carotid artery using a PV loop catheter (model 1.2F from Scisense, Transonic) in order to continuously record arterial blood pressure and heart rate (LabScribe 2.0, Scisense). Compounds 11, and 54-59 or 55-59 (1.4 μM/kg body weight) or the same volume of saline was injected via the right jugular vein. Results are reported as systolic blood pressure (SBP), diastolic blood pressure (DBP), mean arterial blood pressure (MABP), and heart rate (HR) shown in FIGS. 15A-D.
Apelin peptides were delivered systemically via the right internal jugular vein while blood pressure (BP) and heart rate (HR) were continuously monitored in the aorta cannulated via the right carotid artery. All N-terminally extended apelin peptides, except 58, show pronounced and time-stable blood pressure lowering effects (FIGS. 15a-d). […] This correlates with the results obtained from the Ca^2+ mobilization assay.

isolated rat hearts = assay: Langendorff isolated heart, ischemia-reperfusion injury; conditions: ex vivo heart, 30 min ischemia; for ability to rescue the heart from ischemic reperfusion injury: peptide at start of reperfusion for 10 min at 1 pM; for max/min dP/dt, LVDP and RPP compared to native isoform 2: reperfusion
Protocol: The ex vivo heart was assessed for a variety of parameters (heart rate (HR); left ventricle developed pressure (LVDP); maximum derivative of change in systolic pressure over time (max dP/dt); minimum derivative of change in diastolic pressure over time (min dP/dt); and rate-pressure product (RPP)) indicative of general heart function and performance (FIG. 11).
Langendorff heart perfusion and ischemia-reperfusion injury were prepared and cardiac function was measured. Mice were heparinized and anaesthetized with 1.5-2% isoflurane inhalation. The heart was excised, mounted on a Langendorff system, and perfused at a consistent pressure of 80 mmHg with modified Krebs-Henseleit solution (116 mM NaCl, 3.2 mM KCl, 2.0 mM CaCl2), 1.2 mM MgSO4, 25 mM NaHCO3, 1.2 mM KH2PO4, 11 mM glucose, 0.5 mM EDTA and 2 mM pyruvate), which was kept at 37° C. and continuously oxygenated with 95% O2 and 5% CO2 which maintained the perfusion buffer at pH 7.4. After stabilization and 10 min baseline recording, global ischemia was induced for 30 min followed by 40 min of reperfusion. Apelin 17 (2) or apelin peptides (11, 17, 18, or 19) were given at the start of reperfusion for 10 min at a concentration of 1 pM. Left ventricular functions were obtained continuously by PowerLab system (ADInstruments, Australia). Data was reported as mean value of every 5 min. Left ventricular functions were reported as: Left Ventricular Developed Pressure (LVDP); Heart rate (HR); maximum derivative of change in systolic pressure over time (max dP/dt); minimum derivative of change in diastolic pressure over time (min dP/dt); and Rate Pressure Product (RPP).

in vitro = conditions: human, plasma
NEP = NEP (Homo sapiens, UniProt P08473); assay: Neprilysin inhibition assay (degradation of 1 after preincubation with peptide); assay type: biochemical; design: purchased Sino Biological; conditions: preincubation of NEP with equimolar peptide
Chain of NEP (P08473 whole entry): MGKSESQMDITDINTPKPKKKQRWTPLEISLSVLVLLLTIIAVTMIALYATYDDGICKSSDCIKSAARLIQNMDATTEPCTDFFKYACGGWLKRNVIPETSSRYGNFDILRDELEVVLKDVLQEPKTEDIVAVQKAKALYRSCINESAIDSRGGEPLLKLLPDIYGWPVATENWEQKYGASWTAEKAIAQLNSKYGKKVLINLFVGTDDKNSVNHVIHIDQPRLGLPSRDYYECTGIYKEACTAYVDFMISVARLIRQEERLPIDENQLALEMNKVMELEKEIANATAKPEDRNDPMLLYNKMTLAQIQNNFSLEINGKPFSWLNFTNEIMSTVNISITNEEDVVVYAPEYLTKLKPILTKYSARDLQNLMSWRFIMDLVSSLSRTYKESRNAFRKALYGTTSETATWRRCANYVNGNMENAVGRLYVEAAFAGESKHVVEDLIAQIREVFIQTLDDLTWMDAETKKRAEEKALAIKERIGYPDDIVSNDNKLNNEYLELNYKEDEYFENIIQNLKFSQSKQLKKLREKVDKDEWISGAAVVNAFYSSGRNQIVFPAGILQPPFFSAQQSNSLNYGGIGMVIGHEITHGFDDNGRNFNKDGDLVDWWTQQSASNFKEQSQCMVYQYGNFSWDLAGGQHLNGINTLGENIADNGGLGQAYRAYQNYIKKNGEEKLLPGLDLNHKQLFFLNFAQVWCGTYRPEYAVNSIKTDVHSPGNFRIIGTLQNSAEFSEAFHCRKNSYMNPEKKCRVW
Protocol: This experiment investigates the ability of synthetic peptides 8-19 to inhibit the inherent proteolytic activity of NEP.
Assays were performed in duplicate (n=2) for each time point.

Row | Ki ([1]; displacement of [125I]-pyr-1-apelin-13 (0.2 nM), CHO membranes, rat apelin receptor-EGFP, means ± SE, read-out: Affinity Ki) [nM] | receptor binding affinity (in words) [1] | remaining at 0.5 h, 80 µM (in vitro) [%] | remaining at 1 h, 80 µM (in vitro) [%] | Compound | blood pressure lowering (hypotensive) effect (anesthetized mice) | ability to rescue the heart from ischemic reperfusion injury (isolated rat hearts) | max/min dP/dt, LVDP and RPP compared to native isoform 2 (isolated rat hearts) | inhibition of the proteolytic activity of NEP (NEP)
1 | 0.14 ± 0.009 | sub-nanomolar receptor affinities | 96 ± 6 | 94 ± 3 | CCCC[C@H](NC(=O)[C@@H]1CCCN1C(=O)CNC(=O)[C@H](CCCCN)NC(=O)[C@H](Cc1c[nH]cn1)NC(=O)[C@H](CO)NC(=O)[C@H](CC(C)C)NC(=O)N(CCCNC(=N)N)NC(=O)[C@@H]1CCCN1C(=O)[C@H](CCCNC(=N)N)NC(=O)[C@H](CCC(N)=O)NC(=O)[C@H](CCCNC(=N)N)NC(=O)[C@H](CCCNC(=N)N)NC(=O)[C@H](Cc1ccccc1)NC(=O)[C@@H](N)CCCCN)C(=O)NC(C)(C)C(=O)N[C@@H](Cc1ccc(Br)cc1)C(=O)O [Peptide 17, Lys-Phe-Arg-Arg-Gln-Arg-Pro-azaArg-Leu-Ser-His-Lys-Gly-Pro-Nle-Aib-paraBrPhe] (H-KFRRQRP[X1]LSHKGP[Nle][Aib][Phe(4-Br)]-OH; N-terminus and C-terminus assumed) | potent hypotensive activity that rivaled or bested that of native 2 or A2 variant 5 | equivalent ability to rescue the heart from ischemic reperfusion injury compared to native isoform 2 | behaving very analogously to 2 | no ability to inhibit the inherent activity of NEP
2 | – | sub-nanomolar receptor affinities | 82 ± 1 | 68 ± 4 | CCCC[C@H](NC(=O)[C@@H]1CCCN1C(=O)CNC(=O)[C@H](CCCCN)NC(=O)[C@H](Cc1c[nH]cn1)NC(=O)[C@H](CO)NC(=O)N(CC(C)C)NC(=O)[C@H](CCCNC(=N)N)NC(=O)[C@@H]1CCCN1C(=O)[C@H](CCCNC(=N)N)NC(=O)[C@H](CCC(N)=O)NC(=O)[C@H](CCCNC(=N)N)NC(=O)[C@H](CCCNC(=N)N)NC(=O)[C@H](Cc1ccccc1)NC(=O)[C@@H](N)CCCCN)C(=O)NC(C)(C)C(=O)N[C@@H](Cc1ccc(Br)cc1)C(=O)O [Peptide 19] (H-KFRRQRPR[azaLeu]SHKGP[Nle][Aib][Phe(4-Br)]-OH; N-terminus and C-terminus assumed) | potent hypotensive activity that rivaled or bested that of native 2 or A2 variant 5 | equivalent ability to rescue the heart from ischemic reperfusion injury compared to native isoform 2 | slight improvement over the native isoform | no ability to inhibit the inherent activity of NEP
